ChEMBL document CHEMBL5579860, “Design and synthesis of novel Thiazolo[5,4-b]pyridine derivatives as potent and selective EGFR-TK inhibitors targeting resistance Mutations in non-small cell lung cancer” (Eur J Med Chem, 2024)
Activity calls are given as the source filed them. The calls are words filed in the database; no cut-off is given here.

Legend:
[1] = test system: A549; experiment: Anticancer activity against human A549 cells incubated for 72 hrs by MTT assay; assay type: functional, cell-based; conditions: A549, 72 h
[2] = test system: NCI-H1975; experiment: Anticancer activity against human NCI-H1975 cells incubated for 72 hrs by MTT assay; assay type: functional, cell-based; conditions: NCI-H1975, 72 h
[3] = test system: HCC827; experiment: Induction of apoptosis in human HCC827 cells assessed as early apoptotic cells at IC50 concentration incubated for 24 to 48 hrs by Annexin V-FITC/PI staining based flow cytometry ( Rvb = 2.0% ); assay type: functional; conditions: time 24-48 hrs
[4] = test system: HCC827; experiment: Induction of apoptosis in human HCC827 cells assessed as late apoptotic cells at IC50 concentration incubated for 24 to 48 hrs by Annexin V-FITC/PI staining based flow cytometry ( Rvb = 1.6% ); assay type: functional; conditions: time 24-48 hrs
[5] = test system: HCC827; experiment: Anticancer activity against human HCC827 cells incubated for 72 hrs by MTT assay; assay type: functional, cell-based; conditions: HCC827, 72 h
[6] = target: Epidermal growth factor receptor (Homo sapiens) (UniProt P00533); experiment: Inhibition of EGFR autophosphorylation in human HCC827 cells at 0.01 to 1.00 uM incubated for 8 hrs by Western blot analysis; assay type: cell-based; conditions: dose 0.01-1 µM
Sequence of Epidermal growth factor receptor (Homo sapiens) (P00533 whole entry): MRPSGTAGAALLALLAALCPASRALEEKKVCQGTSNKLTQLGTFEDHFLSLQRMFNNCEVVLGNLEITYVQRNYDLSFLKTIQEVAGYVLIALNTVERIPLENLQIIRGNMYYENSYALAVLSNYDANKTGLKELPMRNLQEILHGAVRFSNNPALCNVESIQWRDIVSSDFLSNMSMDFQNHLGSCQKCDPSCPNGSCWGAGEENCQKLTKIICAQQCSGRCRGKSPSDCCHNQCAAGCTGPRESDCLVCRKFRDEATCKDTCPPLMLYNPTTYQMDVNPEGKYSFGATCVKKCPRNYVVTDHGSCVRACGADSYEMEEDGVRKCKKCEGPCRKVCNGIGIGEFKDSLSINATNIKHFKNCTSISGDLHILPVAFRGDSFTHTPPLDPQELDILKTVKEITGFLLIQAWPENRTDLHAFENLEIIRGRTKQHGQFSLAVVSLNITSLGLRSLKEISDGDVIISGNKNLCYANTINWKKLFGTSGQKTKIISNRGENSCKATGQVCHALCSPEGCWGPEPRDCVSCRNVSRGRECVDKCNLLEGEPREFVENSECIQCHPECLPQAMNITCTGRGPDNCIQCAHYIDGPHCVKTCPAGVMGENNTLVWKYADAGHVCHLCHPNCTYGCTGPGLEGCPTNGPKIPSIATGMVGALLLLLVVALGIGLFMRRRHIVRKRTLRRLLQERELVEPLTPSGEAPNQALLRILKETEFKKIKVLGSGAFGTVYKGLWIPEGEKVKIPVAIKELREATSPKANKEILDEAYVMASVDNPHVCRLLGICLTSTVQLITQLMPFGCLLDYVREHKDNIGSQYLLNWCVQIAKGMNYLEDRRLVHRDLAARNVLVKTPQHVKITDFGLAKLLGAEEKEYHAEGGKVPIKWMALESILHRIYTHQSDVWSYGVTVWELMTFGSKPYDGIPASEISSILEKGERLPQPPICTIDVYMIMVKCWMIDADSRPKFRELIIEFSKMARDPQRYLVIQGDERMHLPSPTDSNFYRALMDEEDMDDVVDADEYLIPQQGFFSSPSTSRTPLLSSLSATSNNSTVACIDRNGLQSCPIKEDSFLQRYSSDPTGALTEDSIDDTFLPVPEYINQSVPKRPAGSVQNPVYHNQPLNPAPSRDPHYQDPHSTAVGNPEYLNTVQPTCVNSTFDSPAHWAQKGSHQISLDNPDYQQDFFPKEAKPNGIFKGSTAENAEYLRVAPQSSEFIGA

[7] = Cytotoxicity against human BEAS-2B cells; assay type: toxicity, cell-based

Row | SMILES | IC50 [1] [µM] | IC50 [2] [µM] | IC50 [5] [µM] | inhibition [6] | Activity [3] [%] | Activity [4] [%] | IC50 [7] [µM]
1 | Cc1c(NS(=O)(=O)c2cc(F)ccc2F)cccc1-c1nc2cc(-c3cnc(N)nc3)cnc2s1 | 0.82 | 0.08 | 0.01 | Active | 31.9 | 8.8 | 38.4
2 | Cc1c(NS(=O)(=O)c2cccnc2)cccc1-c1nc2cccnc2s1 | 4.1 | 3.06 | 2.1 | – | – | – | –
3 | COc1ccc(F)cc1S(=O)(=O)Nc1cccc(-c2nc3cc(-c4cnc(N)nc4)cnc3s2)c1C | 8.12 | 4.14 | 4.31 | – | – | – | –
4 | Cc1c(NS(=O)(=O)c2cc(F)ccc2F)cccc1-c1nc2cc(-c3cccc(C(F)(F)F)c3)cnc2s1 | 1.21 | 0.26 | 0.092 | – | – | – | –
5 | Cc1c(NS(=O)(=O)Cc2ccccc2)cccc1-c1nc2cccnc2s1 | 4.62 | 3.41 | 2.24 | – | – | – | –
6 | COc1ccc(F)cc1S(=O)(=O)Nc1cccc(-c2nc3cc(-c4cncnc4)cnc3s2)c1C | 8.14 | 4.38 | 4.33 | – | – | – | –
7 | COc1cccc(-c2cnc3sc(-c4cccc(NS(=O)(=O)c5cc(F)ccc5OC)c4C)nc3c2)c1 | 11.7 | 7.1 | 6.21 | – | – | – | –
8 | Cc1c(NS(=O)(=O)c2ccccc2)cccc1-c1nc2cccnc2s1 | 4.6 | 3.32 | 2.2 | – | – | – | –
9 | Cc1c(NS(=O)(=O)c2cc(F)ccc2F)cccc1-c1nc2cc(-c3ccc(C(F)(F)F)nc3)cnc2s1 | 0.98 | 0.22 | 0.044 | – | – | – | –
10 | Cc1c(N)cccc1-c1nc2cccnc2s1 | 29.1 | 12.7 | 10.1 | – | – | – | –
11 | COc1ccc(F)cc1S(=O)(=O)Nc1cccc(-c2nc3cc(CN4CCN(C)CC4)cnc3s2)c1C | 8.5 | 4.6 | 4.5 | – | – | – | –
12 | Cc1c(NS(=O)(=O)c2cc(F)ccc2F)cccc1-c1nc2cc(CN3CCOCC3)cnc2s1 | 2.1 | 0.46 | 0.42 | – | – | – | –
13 | Cc1c(NS(=O)(=O)C2CCOCC2)cccc1-c1nc2cccnc2s1 | 4.18 | 3.12 | 2.11 | – | – | – | –
14 | COc1cc(-c2cnc3sc(-c4cccc(NS(=O)(=O)c5cc(F)ccc5OC)c4C)nc3c2)ccn1 | 8.45 | 4.56 | 4.42 | – | – | – | –
15 | CCc1cnc2sc(-c3cccc(NS(=O)(=O)c4cc(F)ccc4F)c3C)nc2c1 | 1.48 | 0.42 | 0.7 | – | – | – | –
16 | Cc1c(NS(=O)(=O)c2ccccc2OC(F)(F)F)cccc1-c1nc2cccnc2s1 | 3.19 | 2.18 | 1.52 | – | – | – | –
17 | Cc1c(NS(=O)(=O)c2cc(F)ccc2F)cccc1-c1nc2cc(-c3cccs3)cnc2s1 | 1.33 | 0.3 | 0.11 | – | – | – | –
18 | Cc1c(NS(=O)(=O)c2ccc(F)cc2F)cccc1-c1nc2cccnc2s1 | 3.17 | 2.11 | 1.4 | – | – | – | –
19 | COc1ccc(F)cc1S(=O)(=O)Nc1cccc(-c2nc3cc(-c4ccc(C(C)=O)cc4)cnc3s2)c1C | 11.4 | 6.3 | 6.14 | – | – | – | –
20 | Cc1c(NS(=O)(=O)c2cc(F)ccc2F)cccc1-c1nc2cccnc2s1 | 3.09 | 1.09 | 1.16 | – | – | – | –
21 | Cc1c(NS(=O)(=O)c2cc(F)ccc2F)cccc1-c1nc2cc(CN3CCN(C)CC3)cnc2s1 | 2.31 | 0.77 | 0.52 | – | – | – | –
22 | COc1ccc(F)cc1S(=O)(=O)Nc1cccc(-c2nc3cc(-c4cc[nH]n4)cnc3s2)c1C | 9.34 | 4.89 | 5.01 | – | – | – | –
23 | Cc1c(NS(=O)(=O)c2cc(F)ccc2F)cccc1-c1nc2cc(-c3ccccc3)cnc2s1 | 1.16 | 0.22 | 0.089 | – | – | – | –
24 | Cc1c(NS(=O)(=O)c2cc(F)ccc2F)cccc1-c1nc2cc(-c3ccc(C#N)nc3)cnc2s1 | 0.91 | 0.12 | 0.041 | – | – | – | 37
25 | Cc1c(NS(=O)(=O)c2cccc(Cl)c2)cccc1-c1nc2cccnc2s1 | 3.28 | 2.21 | 1.59 | – | – | – | –
26 | C=CC(=O)Nc1cc(Nc2nccc(-c3cn(C)c4ccccc34)n2)c(OC)cc1N(C)CCN(C)C [OSIMERTINIB] | 0.86 | – | 0.007 | – | – | – | –
27 | Cc1c(NS(=O)(=O)c2cc(F)ccc2F)cccc1-c1nc2cc(C#N)cnc2s1 | 1.28 | 0.28 | 0.094 | – | – | – | –
28 | COc1ccc(F)cc1S(=O)(=O)Nc1cccc(-c2nc3cc(-c4ccccc4)cnc3s2)c1C | 11 | 6.2 | 6.08 | – | – | – | –
29 | CC(=O)c1ccc(-c2cnc3sc(-c4cccc(NS(=O)(=O)c5cc(F)ccc5F)c4C)nc3c2)cc1 | 1.42 | 0.36 | 0.56 | – | – | – | –

Further molecules by falling IC50 [1], results first:

Row | IC50 [1] [µM] | IC50 [2] [µM] | IC50 [5] [µM] | inhibition [6] | SMILES | Activity [3] [%] | Activity [4] [%] | IC50 [7] [µM]
30 | 11.4 | 6.25 | 6.11 | – | COc1ccc(F)cc1S(=O)(=O)Nc1cccc(-c2nc3cc(C#N)cnc3s2)c1C | – | – | –
31 | 11.2 | 6.19 | 6.01 | – | COc1ccc(F)cc1S(=O)(=O)Nc1cccc(-c2nc3cc(-c4cccnc4)cnc3s2)c1C | – | – | –
32 | 10.9 | 6.11 | 6.02 | – | COc1ccc(F)cc1S(=O)(=O)Nc1cccc(-c2nc3cc(-c4cccc(C(F)(F)F)c4)cnc3s2)c1C | – | – | –
33 | 9.08 | 4.72 | 4.88 | – | COc1ccc(F)cc1S(=O)(=O)Nc1cccc(-c2nc3cc(-c4cccs4)cnc3s2)c1C | – | – | –
34 | 8.54 | 4.7 | 4.61 | – | COc1ccc(F)cc1S(=O)(=O)Nc1cccc(-c2nc3cc(CN4CCOCC4)cnc3s2)c1C | – | – | –
35 | 8.41 | 4.55 | 4.4 | – | COc1ccc(F)cc1S(=O)(=O)Nc1cccc(-c2nc3cc(-c4cccnc4OC)cnc3s2)c1C | – | – | –
36 | 8.33 | 4.5 | 4.38 | – | COc1ccc(F)cc1S(=O)(=O)Nc1cccc(-c2nc3cc(-c4ccc(C#N)nc4)cnc3s2)c1C | – | – | –
37 | 8.23 | 4.44 | 4.36 | – | COc1ccc(F)cc1S(=O)(=O)Nc1cccc(-c2nc3cc(-c4ccc(C(F)(F)F)nc4)cnc3s2)c1C | – | – | –
38 | 4.23 | 3.3 | 2.18 | – | Cc1c(NS(=O)(=O)c2cnn(C)c2)cccc1-c1nc2cccnc2s1 | – | – | –
39 | 3.27 | 2.1 | 1.46 | – | Cc1c(NS(=O)(=O)c2ccc(F)c(C#N)c2)cccc1-c1nc2cccnc2s1 | – | – | –
40 | 2.18 | 0.52 | 0.49 | – | Cc1c(NS(=O)(=O)c2cc(F)ccc2F)cccc1-c1nc2cc(CN3CCCC3)cnc2s1 | – | – | –
41 | 1.34 | 0.3 | 0.14 | – | Cc1c(NS(=O)(=O)c2cc(F)ccc2F)cccc1-c1nc2cc(-c3cc[nH]n3)cnc2s1 | – | – | –
42 | 1.09 | 0.34 | 0.72 | – | COc1cccc(-c2cnc3sc(-c4cccc(NS(=O)(=O)c5cc(F)ccc5F)c4C)nc3c2)c1 | – | – | –
43 | 0.96 | 0.18 | 0.042 | – | COc1cc(-c2cnc3sc(-c4cccc(NS(=O)(=O)c5cc(F)ccc5F)c4C)nc3c2)ccn1 | – | – | –
44 | 0.92 | 0.15 | 0.04 | – | COc1ncccc1-c1cnc2sc(-c3cccc(NS(=O)(=O)c4cc(F)ccc4F)c3C)nc2c1 | – | – | 37.1
45 | 0.88 | 0.11 | 0.021 | – | Cc1c(NS(=O)(=O)c2cc(F)ccc2F)cccc1-c1nc2cc(-c3cncnc3)cnc2s1 | – | – | 42.1
46 | 0.8 | 0.09 | 0.01 | – | CSc1ncc(-c2cnc3sc(-c4cccc(NS(=O)(=O)c5cc(F)ccc5F)c4C)nc3c2)cn1 | – | – | 44.1
